Reference: patent publication US11279733B2, “Peptide antibiotics” (priority 2017, dated 2022)
In brackets after ≈: the same amount, converted by molar mass. Read-outs that look alike come from different tables or passages of the source. Positions of bridges follow the written chain, without caps; N, C: chain ends. Non-standard residues stand in square brackets, D forms with d. Residues, ends and D or L forms follow the SMILES beside them. *: point of attachment. Decanoyl(3R-OH) = CCCCCCC[C@@H](O)CC(=O)*; dBip = N[C@H](Cc1ccc(-c2ccccc2)cc1)C(=O)O; Phe(4-NH2) = Nc1ccc(C[C@H](N)C(=O)O)cc1; dDab = NCC[C@@H](N)C(=O)O; Dab = NCC[C@H](N)C(=O)O; Dap = NC[C@H](N)C(=O)O

Legend:
[1] = In vitro nephrotoxicity, GGT release from primary human kidney cells; type: cell-based; details: pH 7.4
Source text: (§1) hPT cells were derived from whole human kidneys procured by the International Institute for the Advancement of Medicine (Edison, N.J., USA). All tissue was scored by a pathologist as normal (i.e., derived from non-cancerous, non-diseased tissue). Cell isolation procedures were based on those originally described by Todd et al. (1996) and modified (Cummings and Lash, 2000; Cummings et al., 2000) with use of sterile conditions (i.e., all instruments and glassware were autoclaved and all buffers were filtered through a 0.2-μm pore-size filter). Renal cortex and outer stripe were cut into slices, washed with sterile PBS, minced, and the pieces were placed in a trypsinization flask filled with 300 ml of sterile, filtered Hanks' buffer, containing 25 mM NaHCO3, 25 mM HEPES, pH 7.4, 0.5 mM EGTA, 0.2% (w/v) bovine serum albumin, 50 μg/ml gentamicin, 1.3 mg/mL collagenase, and 0.59 mg/ml CaCl2), which was filtered prior to use. Whole kidneys were perfused with Wisconsin medium and kept on ice until they arrived at the laboratory, which was usually within 24 h of removal from the donor.
(§2) All buffers were continuously bubbled with 95% O2/5% CO2 and were maintained at 37° C. Minced cortical pieces from whole kidneys were subjected to collagenase digestion for 60 min, after which the supernatant was filtered through a 70-μm mesh filter to remove tissue fragments, centrifuged at 150×g for 7 min, and the pellet resuspended in Dulbecco's Modified Eagle's Medium: Ham's F12 Medium (DMEM/F12; 1/1). Approximately 5 to 7×10^6 cells were obtained per 1 g of human kidney cortical tissue.
(§3) hPT cells were resuspended in 2 mL of DMEM/F12 and diluted to 500 mL with cell culture medium, which was serum-free and hormonally-defined. Composition of this supplemented medium was based on earlier work establishing optimal conditions for primary culture of rat PT cells (Lash et al., 1995). Basal medium was a 1:1 mixture of DMEM/F12. […] Cells were seeded in a volume of 0.5 ml at a density of 50-100 μg protein per cm^2 (0.5-1.0×10^6 cells/ml) on 24-well plates. Cultures were grown at 37° C. in a humidified incubator under an atmosphere of 95% air/5% CO2 at pH 7.4. Cultures were grown to approximately 80%-90% confluence (generally 5-6 days) prior to experiments. Cells were harvested by either scraping the flasks with a Teflon scraper or by brief incubation with Cellstripper (Cellgro, Herndon, Va., USA) (in Ca^2+- and Mg^2+-free Hanks' buffer).
Release of gamm-glutanyltransferase was assessed according to Orlowski, M., Meister, A. 1963. γ-Glutamyl-p-nitroanilide: A new convenient substrate for determination and study of L- and D-γ-glutamyltranspeptidase activities (Biochim. Biophys. Acta 73: 679-681.)
A 2.5 mM substrate Solution was prepared from 67 mg γ-glutamyl-p-nitroanilide+264 mg glycylglycine in 100 mL of 0.05 M Tris, pH 8.2 (50 mM Tris, pH 8.2: 605 mg Tris/HCl per 100 mL).
For the assay in 96-well plates, 6-μL of sample and 0.3 mL substrate solution were added to each well. The absorbance was measured at 410 nm for the appearance of product, p-nitroanilide (molar extinction=8800 M^−1 cm^−1).

[2] = In vitro nephrotoxicity, LDH release from primary human kidney cells; type: cell-based; details: pH 7.4
Source text: as §1, §2, §3

[3] = system: S. aureus ATCC 25923, MSSA; details: ATCC 25923
Outline: (§4)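 Mid-log cultures grown in Mueller Hinton broth at 37° C were tested by 2-fold broth microdilution at 5×10^5 CFU/mL final. Compounds were dissolved in water and tested over a final range of 32 to 0.015 μg/mL.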

E. coli ATCC 25922 = details: ATCC 25922
Outline: as §4

K. pneumoniae ATCC 13883 = details: ATCC 13883
Outline: as §4

[4] = system: P. aeruginosa GN_043, PmxR; details: polymyxin-resistant; for MIC, P. aeruginosa FADDI-PA070, PmxR: Table 5
Outline: as §4

[5] = system: K. pneumoniae ATCC BAA-2146, NDM-1 pos; details: ATCC BAA-2146
Outline: as §4

[6] = system: K. pneumoniae GN_102 PmxR; details: GN 102 PmxR
Outline: as §4

A. baumannii ATCC 19606 = details: ATCC 19606
Outline: as §4

[7] = system: P. aeruginosa GN_105, PmxR; details: GN 105, PmxR
Outline: as §4

P. aeruginosa ATCC 27853 = details: ATCC 27853
Outline: as §4

[8] = system: K. pneumoniae ATCC 700603, MDR; details: ATCC 700603
Outline: as §4

[9] = system: K. pneumoniae GN_106, PmxR; details: GN 106, PmxR
Outline: as §4

A. baumannii GN_093 PmxR = details: GN 093 PmxR
Outline: as §4

in vitro [10] = details: human
Outline: (§5)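 Fluorescence read-out (excitation 560, emission 590) after a 2 h, 37 °C incubation with 5 μM resazurin, following 24 h compound treatment of cells plated at 4000 per well. CC50 values come from fitting dose–response curves of growth inhibition.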

in vitro [11] = details: human; remark: listed apart in the source
Outline: as §5

in vitro [12] = details: human; remark: listed apart in the source
Outline: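 HK2 cells were seeded at 2000 per well in DMEM/F12 with 10% FBS and left to attach for 24 h at 37 °C, 5% CO2. They were then exposed for 24 h to 3-fold peptide dilutions starting from 600 μM solutions in quadruplicate. LDH release was read at 450 nm, and CC50 was fitted from dose-response curves.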

SMILES | CC50 [1] [µg/mL] | CC50 [2] [µg/mL] | MIC, S. Aureus ATCC 25923, MSSA [3] [µg/mL] | MIC, E. coli ATCC 25922 (E. coli ATCC 25922) [µg/mL] | MIC, K. pneumoniae ATCC 13883 (K. pneumoniae ATCC 13883) [µg/mL] | MIC, P. aeruginosa FADDI-PA070, PmxR [4] [µg/mL] | MIC, K. pneumoniae ATCC BAA-2146, NDM-1 pos [5] [µg/mL] | MIC, K. pneumoniae Cl Koprana 10065 0661:1, PmxR [6] [µg/mL] | MIC, A. baumannii ATCC 19606 (A. baumannii ATCC 19606) [µg/mL] | MIC, P. aeruginosa PA9704, PmxR [7] [µg/mL] | MIC, P. aeruginosa ATCC 27853 (P. aeruginosa ATCC 27853) [µg/mL] | MIC, K. pneumoniae ATCC 700603, MDR [8] [µg/mL] | MIC, K. pneumoniae Cl 138-16347-20362, PmxR [9] [µg/mL] | MIC, A. baumannii Cl Ptyela 10073 4512:2, PmxR (A. baumannii GN_093 PmxR) [µg/mL] | MIC K. pneumoniae GN_102 PmxR [6] [µg/mL] | MIC P. aeruginosa GN_105, PmxR [7] [µg/mL] | MIC K. pneumoniae GN_106, PmxR [9] [µg/mL] | MIC A. baumannii GN_093 PmxR (A. baumannii GN_093 PmxR) [µg/mL] | further results
CCCCCCC[C@@H](O)CC(=O)N[C@H](CCN)C(=O)N[C@H]1CCNC(=O)[C@H](CC(C)C)NC(=O)[C@H](CCN)NC(=O)[C@H](CCN)NC(=O)[C@H](CC(C)C)NC(=O)[C@@H](Cc2ccccc2)NC(=O)[C@H](CCN)NC1=O [Octapeptin C4, octapeptin C4, reference compound] ({Decanoyl(3R-OH)}-[dDab][Dab][Dab][dF]L[Dab][Dab]L; lactam 2-C) | > 128 | 62 (≈ 59.4 µM) |  |  |  |  |  |  |  |  |  |  |  |  |  |  |  |  | 
CCCCCCC[C@@H](O)CC(=O)N[C@H](CCN)C(=O)N[C@H]1CCNC(=O)[C@H](CC(C)C)NC(=O)[C@H](CCN)NC(=O)[C@H](CCCCN)NC(=O)[C@H](CC(C)C)NC(=O)[C@@H](Cc2ccccc2)NC(=O)[C@H](CCN)NC1=O [compound 992, 3(R)OH-nC9CO-D-Dab-cyc[L-Dab-L-Dab-D-Phe-L-Leu-L-Lys-L-Dab-L-Leu]] ({Decanoyl(3R-OH)}-[dDab][Dab][Dab][dF]LK[Dab]L; lactam 2-C) | > 128 | 114 (≈ 106 µM) | 16 (≈ 14.9 µM) | 2 (≈ 1.86 µM) | 2 (≈ 1.86 µM) | 2 (≈ 1.86 µM) | 2 (≈ 1.86 µM) | 4 (≈ 3.73 µM) | 2 (≈ 1.86 µM) | 4 (≈ 3.73 µM) | 2 (≈ 1.86 µM) | 2 (≈ 1.86 µM) | 4 (≈ 3.73 µM) | 8 (≈ 7.46 µM) |  |  |  |  | 
CCCCCCC[C@@H](O)CC(=O)N[C@H](CCN)C(=O)N[C@H]1CCNC(=O)[C@H](CC(C)C)NC(=O)[C@H](CN)NC(=O)[C@H](CCN)NC(=O)[C@H](CC(C)C)NC(=O)[C@@H](Cc2ccc(-c3ccccc3)cc2)NC(=O)[C@H](CCN)NC1=O [compound 5383, 3(R)OH-nC9CO-D-Dab-cyc[L-Dab-L-Dab-D-Bip-L-Leu-L-Dab-L-Dap-L-Leu]] ({Decanoyl(3R-OH)}-[dDab][Dab][Dab][dBip]L[Dab][Dap]L; lactam 2-C) | > 128 | > 128 |  |  |  |  |  |  |  |  |  |  |  |  | 8 (≈ 7.23 µM) | 2 (≈ 1.81 µM) | 8 (≈ 7.23 µM) | 4 (≈ 3.62 µM) | MIC S. aureus ATCC 25923, MSSA [3]: 2 µg/mL (≈ 1.81 µM); MIC E. coli ATCC 25922 (E. coli ATCC 25922): 4 µg/mL (≈ 3.62 µM); MIC K. pneumoniae ATCC 13883 (K. pneumoniae ATCC 13883): 4 µg/mL (≈ 3.62 µM); MIC P. aeruginosa GN_043, PmxR [4]: 2 µg/mL (≈ 1.81 µM); MIC K. pneumoniae ATCC BAA-2146, NDM-1 pos [5]: 4 µg/mL (≈ 3.62 µM); MIC A. baumannii ATCC 19606 (A. baumannii ATCC 19606): 4 µg/mL (≈ 3.62 µM); MIC P. aeruginosa ATCC 27853 (P. aeruginosa ATCC 27853): 2 µg/mL (≈ 1.81 µM); MIC K. pneumoniae ATCC 700603, MDR [8]: 4 µg/mL (≈ 3.62 µM)
CCCCCCC[C@@H](O)CC(=O)N[C@H](CCN)C(=O)N[C@H]1CCNC(=O)[C@H](CC(C)C)NC(=O)[C@H](CCN)NC(=O)[C@H](CCNC(=O)[C@@H](N)CCCNC(=N)N)NC(=O)[C@H](CC(C)C)NC(=O)[C@@H](Cc2ccccc2)NC(=O)[C@H](CCN)NC1=O [compound 6654, 3(R)OH-nC9CO-D-Dab-cyc[L-Dab-L-Dab-D-Phe-L-Leu-L-Dab(L-Arg)-L-Dab-L-Leu]] ({Decanoyl(3R-OH)}-[dDab][Dab][Dab][dF]L[Dab](Arg)[Dab]L; lactam 2-C) | > 128 | > 128 | 16 (≈ 13.3 µM) | 4 (≈ 3.33 µM) | 4 (≈ 3.33 µM) | 2 (≈ 1.67 µM) | 8 (≈ 6.66 µM) | 8 (≈ 6.66 µM) | 8 (≈ 6.66 µM) | 2 (≈ 1.67 µM) | 4 (≈ 3.33 µM) | 4 (≈ 3.33 µM) | 16 (≈ 13.3 µM) | 8 (≈ 6.66 µM) |  |  |  |  | 
CCCCCCC[C@@H](O)CC(=O)N[C@H](CCN)C(=O)N[C@H]1CCNC(=O)[C@H](CC(C)C)NC(=O)[C@H](CCN)NC(=O)[C@H](CCN)NC(=O)[C@H](CC(C)C)NC(=O)[C@@H](Cc2ccccc2)NC(=O)[C@H](Cc2ccc(N)cc2)NC1=O [compound 8635, 3(R)OH-nC9CO-D-Dab-cyc[L-Dab-L-4NH2Phe-D-Phe-L-Leu-L-Dab-L-Dab-L-Leu]] ({Decanoyl(3R-OH)}-[dDab][Dab][Phe(4-NH2)][dF]L[Dab][Dab]L; lactam 2-C) |  |  | 32 (≈ 28.9 µM) | 16 (≈ 14.5 µM) | >32 | 16 (≈ 14.5 µM) | 16 (≈ 14.5 µM) | >32 | >32 | >32 | 16 (≈ 14.5 µM) | 32 (≈ 28.9 µM) | >32 | >32 |  |  |  |  | CC50 at 24 h (in vitro [10]): > 300 µM; CC50 at 24 h (in vitro [11]): > 300 µM; CC50 at 24 h (in vitro [12]): 219 µM
CCCCCCC[C@@H](O)CC(=O)N[C@@H](CCN)C(=O)N[C@H]1CCNC(=O)[C@H](CC(C)C)NC(=O)[C@H](CCN)NC(=O)[C@H](CCN)NC(=O)[C@H](CC(C)C)NC(=O)[C@@H](Cc2ccccc2)NC(=O)[C@H](CCN)NC1=O [compound 8638, 3(R)OH-nC9CO-L-Dab-cyc[L-Dab-L-DAB-D-Phe-L-Leu-L-Dab-L-Dab-L-Leu]] ({Decanoyl(3R-OH)}-[Dab][Dab][Dab][dF]L[Dab][Dab]L; lactam 2-C) | > 128 | > 128 |  | 2 (≈ 1.92 µM) | 4 (≈ 3.83 µM) |  | 8 (≈ 7.66 µM) |  | 32 (≈ 30.6 µM) |  | 1 (≈ 0.958 µM) | 8 (≈ 7.66 µM) |  |  | 4 (≈ 3.83 µM) | 2 (≈ 1.92 µM) | 4 (≈ 3.83 µM) | 32 (≈ 30.6 µM) | MIC, S. aureus ATCC 25923, MSSA [3]: 16 µg/mL (≈ 15.3 µM); MIC P. aeruginosa GN_043, PmxR ([4]; Table 6): 8 µg/mL (≈ 7.66 µM)
